Results on 17 molecules are retold here after ChEMBL document CHEMBL1142271, “New fused benzazepine as selective D3 receptor antagonists. Synthesis and biological evaluation. Part one: [h]-fused tricyclic systems” (Bioorg Med Chem Lett, 2008).

Common to all, as to type: ADME, organism-based
Series [1] can be described thus: Blood clearance in rat. The settings on record: whole blood.
A short description of series [2]: Half life in rat. The settings on record: in vivo.
The nature of series [3]: Volume of distribution in rat. The settings on record: in vivo.
The nature of series [4]: Oral bioavailability in rat. To be noted: in vivo.
A short description of series [5]: Ratio of drug level brain to blood in iv dosed rat after 1 hr. The settings on record: read-out: BBR.

As usually defined, the clearance is a measure of how efficiently the substance is removed, as volume per time. Usually half-life stands for how long it takes for the measured level to halve. Read a high half-life as slow decline. What is called Vd is a proportionality between amount in the body and measured concentration, not a real space. Read a low Vd as confinement near the circulation. In general, bioavailability refers to dose-corrected exposure relative to a reference, in per cent. The low end stands for poor availability, the high end for good availability.

Take `Cc1ccc2c(-c3nnc(SCCCN4CCc5cc6nc(C(C)(C)C)oc6cc5CC4)n3C)cccc2n1`: the clearance in series [1] was determined as 137 mL/min/kg.
Take `Cc1ccc2c(-c3nnc(SCCCN4CCc5cc6nc(C)oc6cc5CC4)n3C)cccc2n1`: the clearance in series [1] worked out at 47 mL/min/kg. In series [2], this molecule had a half-life of 1.7 h. In series [3], this molecule returned a Vd of 4.31 L/kg. In series [4], the bioavailability stood at 34%. Also, the Kp at 1 h in series [5] stood at 5.4.
`Cc1ccc2c(-c3nnc(SCCCN4CCc5cc6nc(CC7CC7)oc6cc5CC4)n3C)cccc2n1`: the clearance in series [1] turned out to be 50 mL/min/kg. In series [3], this molecule registered a Vd of 4.3 L/kg. The same molecule displayed a bioavailability in series [4] of 25%.
In series [1], `Cc1ccc2c(-c3nnc(SCCCN4CCc5cc6nc(C)sc6cc5CC4)n3C)cccc2n1` displayed a clearance of 34 mL/min/kg. For the same molecule, the half-life in series [2] was 2.2 h. The molecule also came in with a Vd in series [3] of 4.3 L/kg. Moreover, the bioavailability in series [4] turned out to be 25%. In addition, in series [5], the Kp at 1 h came to 4.4.
On the same counts, the results for `Cc1ccc2c(-c3nnc(SCCCN4CCc5cc6onc(C)c6cc5CC4)n3C)cccc2n1` are 40 mL/min/kg, 1.3 h, 3.3 L/kg, 22% and 7.7.
As for `CCc1nc2cc3c(cc2o1)CCN(CCCSc1nnc(-c2cccc4nc(C)ccc24)n1C)CC3`, the clearance in series [1] turned out to be 57 mL/min/kg. The molecule also gave a half-life in series [2] of 1.6 h. The molecule further yielded a Vd in series [3] of 5.1 L/kg. The bioavailability in series [4] was determined as 31%.
In the case of `Cc1ccc2c(-c3nnc(SCCCN4CCc5cc6c(cc5CC4)N(S(C)(=O)=O)CCO6)n3C)cccc2n1`, in series [1], the clearance was 32 mL/min/kg. Further, in series [2], the half-life is 1.2 h. Also, the Vd in series [3] was found to be 2.4 L/kg. Further, the Kp at 1 h in series [5] stood at 0.2.
In series [1], `Cc1ccc2c(-c3nnc(SCCCN4CCc5cc6nc(N(C)C)oc6cc5CC4)n3C)cccc2n1` yielded a clearance of 29 mL/min/kg. In series [2], this molecule had a half-life of 1.6 h. This molecule also registered a Vd in series [3] of 2.8 L/kg. In addition, the bioavailability in series [4] turned out to be 45%. The Kp at 1 h in series [5] was 1.1.
On the same counts, the results for `Cc1ccc2c(-c3nnc(SCCCN4CCc5cc6nc(C(F)(F)F)oc6cc5CC4)n3C)cccc2n1` are 20 mL/min/kg, 3.3 h, 5 L/kg, 31% and 2.8.
`Cc1nc2cc3c(cc2o1)CCN(CCCSc1nnc(-c2ccc(C(F)(F)F)cc2)n1C)CC3` yielded a clearance in series [1] of 62 mL/min/kg. For the same molecule, the half-life in series [2] was 1.5 h. This molecule showed a Vd in series [3] of 5.4 L/kg. For the same molecule, the bioavailability in series [4] was 17%. Further, the Kp at 1 h in series [5] was 2.9.
In the same order, the values of `CCc1nc2cc3c(cc2o1)CCN(CCCSc1nnc(-c2ccc(C(F)(F)F)cc2)n1C)CC3` are 48 mL/min/kg, 1.1 h, 3.4 L/kg, 17% and 3.1.
With `CCCc1nc2cc3c(cc2o1)CCN(CCCSc1nnc(-c2cccc4nc(C)ccc24)n1C)CC3`, the clearance in series [1] is 62 mL/min/kg. The molecule further yielded a bioavailability in series [4] of 6%.
Regarding `Cc1ccc2c(-c3nnc(SCCCN4CCc5cc6nc(N7CCCCC7)oc6cc5CC4)n3C)cccc2n1`, the clearance in series [1] is 76 mL/min/kg. Moreover, the bioavailability in series [4] came out at 3%. Further, the Kp at 1 h in series [5] worked out at 5.1.
`Cc1ccc2c(-c3nnc(SCCCN4CCc5cc6nc(C(C)C)oc6cc5CC4)n3C)cccc2n1`: the clearance in series [1] was 81 mL/min/kg.
`Cc1ccc2c(-c3nnc(SCCCN4CCc5cc6c(cc5CC4)C(=O)N(C(C)C)C6)n3C)cccc2n1`: the clearance in series [1] was 36 mL/min/kg. In addition, the half-life in series [2] was 1.5 h. This molecule gave a Vd in series [3] of 3.5 L/kg. The bioavailability in series [4] turned out to be 10%. Further, the Kp at 1 h in series [5] was 0.2.
`Cc1ncoc1-c1nnc(SCCCN2CCc3cc4nc(C(C)C)oc4cc3CC2)n1C`: the clearance in series [1] was 152 mL/min/kg.
The molecule `Cc1ncoc1-c1nnc(SCCCN2CCc3cc4nc(CC5CC5)oc4cc3CC2)n1C` returned a clearance in series [1] of 26 mL/min/kg. The molecule further gave a distribution volume (Vd) in series [3] of 1.7 L/kg. In series [4], this molecule registered a bioavailability of 32%.
